Assay results from US7932271B2, “Heterocyclic methyl sulfone derivative” (Daiichi Pharmaceutical Co., Ltd., priority 2003, dated 2011).

How the values were obtained:
[1] = tested on: β amyloid protein (Aβ) secreted by E35 cells (human glioma H4 cells transfected with APP751 gene); assay: Inhibition of production or secretion of β-amyloid protein (Aβ) in E35 cells, sandwich ELISA of the supernatant; format: cell-based; details: 24 hours with test compound, compared to DMSO control cells, read-out: Activity (IC50, concentration at which 50% inhibition of Aβ production was observed)
Protocol: The inhibitory activity against formation of β amyloid protein of the compounds obtained in Examples was tested in the method described bellow.
E35 cells were established by transfecting APP751 gene which is a wild type human β-amyloid protein precursor into human glioma cells (H4 cells).
E35 cells were seeded in 96-well plates and cultured in an incubator of 37° C. by using a Dulbecco's Modified Eagle's Medium containing 10% inactivated fetal bovine serum (10% FBS-DMEM). Twenty-four hours after seeding, a test compound dissolved in DMSO so as to give its concentration to be 2000 times as much as that of the final concentration was added to the medium in an amount of 1/2000 capacity of the culture medium. The cells were cultured for additional twenty-four hours, and then the supernatant was collected. The amount of β amyloid protein (Aβ) secreted in the supernatant was measured by the sandwich enzyme-linked immunosorbent assay (ELISA). Described specifically, a monoclonal antibody 25-1, which recognized Aβ25-35, was immobilized onto a 96-well ELISA plate, followed by the incubation at 4° C. for 16 to 20 hours. After washing with a phosphate buffer (pH 7.4) (PBS), a biotinylated monoclonal antibody MA32-40, which recognized Aβ1-8, was added, and the plate was kept at 4° C. for 2 hours. After the supernatant was removed and the well was washed sufficiently with PBS, alkaline phosphatase-conjugated streptavidin was added to the plate. Absorbance was measured while adding BlouPhos (manufactured by KPL) as a substrate. An amount of Aβ contained in the supernatant was calculated using a calibration curve separately created using Aβ of a known concentration. IC50 of the test compound was presented as the concentration at which 50% inhibition of Aβ production was observed compared to the amount of Aβ of the control cells to which only DMSO was added.
When there is at least 10-times difference between the IC50 and the concentration at which cytotoxicity appears, then the compound is judged as a compound having an inhibitory activity against production or secretion of β amyloid protein.

IC50 [1] [nM] | melting point [°C] | SMILES
< 5 | 147 to 150 | Nc1cc(C(c2cc(F)ccc2F)S(=O)(=O)c2ccc(Cl)cc2)c(Cl)cn1 (centres unmarked) [Example 196, [5-Chloro-4-[(4-chlorophenylsulfonyl)(2,5-difluorophenyl)methyl]pyridin-2-yl]amine]
50 to 500 | 126 to 127 | O=S(=O)(c1ccc(Cl)cc1)C(c1ccncc1)c1cc(F)ccc1F (centres unmarked) [Example 20, 4-[[(4-Chlorophenyl)sulfonyl]-(2,5-difluorophenyl)methyl]pyridine]
< 5 | > 220 | N#Cc1ccc(F)c(C(c2cc(N)ncc2Cl)S(=O)(=O)c2ccc(Cl)cc2)c1 (centres unmarked) [Example 234, 3-[(2-Amino-5-chloropyridin-4-yl)(4-chlorophenylsulfonyl)methyl]-4-fluorobenzonitrile]
< 5 | – | CS(=O)(=O)CCNc1cc(C(c2cc(F)ccc2F)S(=O)(=O)c2ccc(Cl)cc2)c(Cl)cn1 (centres unmarked) [Example 176, 5-Chloro-4-[(4-chlorophenylsulfonyl)-(2,5-difluorophenyl)methyl]-2-[(2-methylsulfonylethyl)amino]pyridine]
5 to 50 | 157 to 158 | Nc1cc(C(c2cc(F)ccc2F)S(=O)(=O)c2ccc(Cl)nc2)c(Cl)cn1 (centres unmarked) [Example 245, [5-Chloro-4-[(6-chloropyridin-3-ylsulfonyl)(2,5-difluorophenyl)methyl]pyridin-2-yl]amine]
5 to 50 | – | NCC1CN(c2cc(C(c3cc(F)ccc3F)S(=O)(=O)c3ccc(Cl)cc3)c(Cl)cn2)CCO1 (centres unmarked) [Example 114, 2-Aminomethyl-4-[5-chloro-4-[(4-chlorophenylsulfonyl)-(2,5-difluorophenyl)methyl]pyridin-2-yl]morpholine]
< 5 | – | O=S(=O)(c1ccc(Cl)cc1)C(c1cc(F)ccc1F)c1cc(NCCN2CCOCC2)ncc1Cl (centres unmarked) [Example 106, 4-[2-[5-Chloro-4-[(4-chlorophenylsulfonyl)-(2,5-difluorophenyl)methyl]pyridin-2-yl]aminoethyl]morpholine]
5 to 50 | 152 to 154 | CS(=O)(=O)N(N)c1cc(C(c2cc(F)ccc2F)S(=O)(=O)c2ccc(Cl)cc2)c(Cl)cn1 (centres unmarked) [Example 225, 1-[5-Chloro-4-[(4-chlorophenylsulfonyl)(2,5-difluorophenyl)methyl]pyridin-2-yl]-1-methylsulfonylhydrazine]
5 to 50 | 221 to 223 | O=S(=O)(c1ccc(Cl)cc1)C(c1cc(F)ccc1F)c1cc(NS(=O)(=O)C(F)(F)F)ncc1Cl (centres unmarked) [Example 276, N-[5-Chloro-4-[(4-chlorophenylsulfonyl)(2,5-difluorophenyl)methyl]pyridin-2-yl]trifluoromethanesulfonamide]
50 to 500 | 89 to 91 | O=C(O)CCc1cc(C(c2cc(F)ccc2F)S(=O)(=O)c2ccc(Cl)cc2)c(F)cn1 (centres unmarked) [Example 254, 3-[4-[(4-Chlorophenylsulfonyl)(2,5-difluorophenyl)methyl]-5-fluoropyridin-2-yl]propionic acid]
50 to 500 | 158 to 160 | O=C(O)CCc1ccc(C(c2cc(F)ccc2F)S(=O)(=O)c2ccc(Cl)cc2)nc1 (centres unmarked) [Example 46, 3-[6-[(4-Chlorophenylsulfonyl)-(2,5-difluorophenyl)methyl]pyridin-3-yl]propionic acid]
5 to 50 | – | NNc1cc(C(c2cc(F)ccc2F)S(=O)(=O)c2ccc(Cl)cc2)c(Cl)cn1 (centres unmarked) [Example 222, [5-Chloro-4-[(4-chlorophenylsulfonyl)(2,5-difluorophenyl)methyl]pyridin-2-yl]hydrazine]
5 to 50 | 192 to 194 | O=S(=O)(c1ccc(Cl)cc1)C(c1cc(F)ccc1F)c1cc(NS(=O)(=O)N2CCCCC2)ncc1Cl (centres unmarked) [Example 270, N-[5-Chloro-4-[(4-chlorophenylsulfonyl)(2,5-difluorophenyl)methyl]pyridin-2-yl]piperidine-1-sulfonamide]
5 to 50 | 201 to 202 | Nc1cc(C(c2cc(F)ccc2F)S(=O)(=O)c2ccc(C(F)(F)F)nc2)c(Cl)cn1 (centres unmarked) [Example 250, [5-Chloro-4-[(2,5-difluorophenyl)(6-trifluoromethylpyridin-3-ylsulfonyl)methyl]pyridin-2-yl]amine]
5 to 50 | 160 to 161 | O=S(=O)(c1ccc(Cl)cc1)C(c1cc(F)ccc1F)c1ccncc1Cl (centres unmarked) [Example 55, 3-Chloro-4-[(4-chlorophenylsulfonyl)-(2,5-difluorophenyl)methyl]pyridine]
50 to 500 | 214 to 216 | CS(=O)(=O)Nc1cc(C(c2cc(F)ccc2F)S(=O)(=O)c2ccc(Cl)cn2)c(Cl)cn1 (centres unmarked) [Example 242, N-[5-Chloro-4-[(5-chloropyridin-2-ylsulfonyl)(2,5-difluorophenyl)methyl]pyridin-2-yl]methanesulfonamide]

IC50 [1] [nM] | melting point [°C] | SMILES
< 5 | 118 to 120 | CS(=O)(=O)Nc1cc(C(c2cc(F)ccc2F)S(=O)(=O)c2ccc(F)c(F)c2)c(Cl)cn1 (centres unmarked) [Example 249, N-[5-Chloro-4-[(2,5-difluorophenyl)(3,4-difluorophenylsulfonyl)methyl]pyridin-2-yl]methanesulfonamide]
< 5 | – | CS(=O)(=O)Nc1cc(C(c2cc(F)ccc2F)[S+]([O-])c2ccc(Cl)cc2)c(Cl)cn1 (centres unmarked) [Example 221, N-[5-Chloro-4-[(4-chlorophenylsulfinyl)(2,5-difluorophenyl)methyl]pyridin-2-yl]methanesulfonamide]
5 to 50 | – | O=S(=O)(c1ccc(Cl)cc1)C(c1cc(F)ccc1F)c1cc(N2CCC[C@H]2CO)ncc1Cl (some centres unmarked) [Example 111]
< 5 | – | OC1CCN(c2cc(C(Sc3ccc(Cl)cc3)c3cc(F)ccc3F)c(Cl)cn2)CC1 (centres unmarked) [Example 115, 5-Chloro-4-[(4-chlorophenylthio)-(2,5-difluorophenyl)methyl]-2-(4′-hydroxypiperidin-1′-yl)pyridine]
5 to 50 | – | [O-][S+](c1ccc(Cl)cc1)C(c1cc(F)ccc1F)c1ccncc1Cl (centres unmarked) [Example 56, 3-Chloro-4-[(4-chlorophenylsulfinyl)-(2,5-difluorophenyl)methyl]pyridine]
< 5 | – | CN(C)CCS(=O)(=O)Nc1cc(C(c2cc(F)ccc2F)S(=O)(=O)c2ccc(Cl)cc2)c(Cl)cn1 (centres unmarked) [Example 279, N-[5-Chloro-4-[(4-chlorophenylsulfonyl)(2,5-difluorophenyl)methyl]pyridin-2-yl]-2-(dimethylamino)ethanesulfonamide]
< 5 | – | O=S(=O)(c1ccc(Cl)cc1)C(c1cc(F)ccc1F)c1cc(NCC[N+]2([O-])CCOCC2)ncc1Cl (centres unmarked) [Example 61, 4-[2-[5-Chloro-4-[(4-chlorophenylsulfonyl)-(2,5-difluorophenyl)methyl]pyridin-2-yl]aminoethyl]morpholine-N-oxide]
5 to 50 | – | COc1c(C(c2cc(F)ccc2F)S(=O)(=O)c2ccc(Cl)cc2)c(=O)oc2ccccc12 (centres unmarked) [23 (Compound A), 3-[[(4-Chlorophenyl)sulfonyl]-(2,5-difluorophenyl)methyl]-4-methoxychromen-2-one]
5 to 50 | – | CNCCN(C)c1cc(C(c2cc(F)ccc2F)S(=O)(=O)c2ccc(Cl)cc2)c(Cl)cn1 (centres unmarked) [Example 109, 5-Chloro-4-[(4-chlorophenylsulfonyl)-(2,5-difluorophenyl)methyl]-2-[N-methyl-N-[2-(methylamino)ethyl]amino]pyridine]
5 to 50 | – | O=S(=O)(c1ccc(Cl)cc1)C(c1cc(F)ccc1F)c1cc(Cl)ncc1Cl (centres unmarked) [Example 57, 2,5-Dichloro-4-[(4-chlorophenylsulfonyl)-(2,5-difluorophenyl)methyl]pyridine 0.5 hydrate]
50 to 500 | – | CS(=O)(=O)Nc1cc(C(Sc2ccc(Cl)cc2)c2cc(F)ccc2F)c(Cl)cn1 (centres unmarked) [220 (B), N-[5-chloro-4-[(4-chlorophenylthio)(2,5-difluorophenyl)methyl]pyridin-2-yl]methanesulfonamide]
50 to 500 | – | COC(=O)OCc1ccc(C(c2cc(F)ccc2F)S(=O)(=O)c2ccc(Cl)cc2)nc1 (centres unmarked) [Example 84, [6-(4-Chlorophenylsulfonyl)(2,5-difluorophenyl)methylpyridin-3-yl]methyl methylcarbonate]
– | 146 to 147 | O=c1oc2ccccc2c(O)c1C(Sc1ccc(Cl)cc1)c1cc(F)ccc1F (centres unmarked)
– | 176 to 178 | CC(C)(CO)CNc1cc(C(c2cc(F)ccc2F)S(=O)(=O)c2ccc(Cl)cc2)c(Cl)cn1 (centres unmarked) [Example 195, 3-[5-Chloro-4-[(4-chlorophenylsulfonyl)(2,5-difluorophenyl)methyl]pyridin-2-ylamino]-2,2-dimethylpropan-1-ol]
50 to 500 | – | CS(=O)(=O)NCc1ccc(C(c2cc(F)ccc2F)S(=O)(=O)c2ccc(Cl)cc2)nc1 (centres unmarked) [Example 82, N-[[6-(4-Chlorophenylsulfonyl)(2,5-difluorophenyl)methylpyridin-3-yl]methyl]methanesulfonamide]
